Experimental data published in patent US20240208968A1, “ALPHA V BETA 6 AND ALPHA V BETA 1 INTEGRIN INHIBITORS AND USES THEREOF” (DiCE Molecules SV, Inc., priority 2021, published 2024).
Where a name gives a salt, the structure may show the parent alone.

Legend:
αvβ6 = αvβ6 (Homo sapiens, UniProt P06756+P18564); assay: Solid Phase Integrin αvβ6 Assay; assay type: binding
Summary of the method: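 Plates coated with 1 μg/mL recombinant TGFb1-LAP; compounds and αvβ6 (0.2 μg/mL diluted stock) incubated 1 h at room temperature in 2% BSA/TBST with 1 mM MnCl2. Bound integrin detected with streptavidin-HRP and TMB; IC50 from four-parameter logistic fits.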

αvβ1 = αvβ1 (Homo sapiens, UniProt P05556+P06756); assay: Solid Phase Integrin αvβ1 Assay; assay type: binding
Summary of the method: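 Wells coated with 1 µg/mL recombinant TGFb1-LAP and blocked with 2% BSA/TBST, 1 mM MnCl2; αvβ1 (added at 0.2 µg/mL) and compound incubated 90 min at room temperature. Bound integrin detected by streptavidin-HRP (20 min) and TMB after Mn-containing washes; IC50 by four-parameter logistic fit.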

Sequence of αvβ1 (P06756 31-992 limits assumed): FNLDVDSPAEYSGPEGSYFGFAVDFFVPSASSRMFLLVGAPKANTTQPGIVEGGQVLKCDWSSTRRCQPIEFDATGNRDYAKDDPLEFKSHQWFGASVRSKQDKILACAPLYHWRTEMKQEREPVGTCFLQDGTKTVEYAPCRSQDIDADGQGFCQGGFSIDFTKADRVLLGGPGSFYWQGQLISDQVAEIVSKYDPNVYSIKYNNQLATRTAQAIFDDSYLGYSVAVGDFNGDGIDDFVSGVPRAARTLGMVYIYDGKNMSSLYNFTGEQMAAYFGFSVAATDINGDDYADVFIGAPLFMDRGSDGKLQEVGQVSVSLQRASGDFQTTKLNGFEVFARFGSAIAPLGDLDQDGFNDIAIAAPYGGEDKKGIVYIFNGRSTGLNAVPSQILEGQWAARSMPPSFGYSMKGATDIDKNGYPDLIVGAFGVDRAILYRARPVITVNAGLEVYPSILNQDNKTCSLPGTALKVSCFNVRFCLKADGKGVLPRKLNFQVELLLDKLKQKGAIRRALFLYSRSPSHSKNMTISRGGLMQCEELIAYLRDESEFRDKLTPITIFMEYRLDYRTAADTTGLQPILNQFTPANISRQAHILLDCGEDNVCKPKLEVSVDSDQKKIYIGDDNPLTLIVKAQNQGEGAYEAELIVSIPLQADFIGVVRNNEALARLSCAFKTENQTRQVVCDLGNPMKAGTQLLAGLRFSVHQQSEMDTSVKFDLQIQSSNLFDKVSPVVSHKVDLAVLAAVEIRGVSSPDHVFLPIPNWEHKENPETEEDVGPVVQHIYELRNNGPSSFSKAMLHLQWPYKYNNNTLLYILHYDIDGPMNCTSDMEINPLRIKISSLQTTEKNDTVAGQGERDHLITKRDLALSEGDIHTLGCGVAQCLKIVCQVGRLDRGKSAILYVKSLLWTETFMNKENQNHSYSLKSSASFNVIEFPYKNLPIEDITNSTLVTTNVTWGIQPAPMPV
Sequence of αvβ1 (P05556 21-728 limits assumed): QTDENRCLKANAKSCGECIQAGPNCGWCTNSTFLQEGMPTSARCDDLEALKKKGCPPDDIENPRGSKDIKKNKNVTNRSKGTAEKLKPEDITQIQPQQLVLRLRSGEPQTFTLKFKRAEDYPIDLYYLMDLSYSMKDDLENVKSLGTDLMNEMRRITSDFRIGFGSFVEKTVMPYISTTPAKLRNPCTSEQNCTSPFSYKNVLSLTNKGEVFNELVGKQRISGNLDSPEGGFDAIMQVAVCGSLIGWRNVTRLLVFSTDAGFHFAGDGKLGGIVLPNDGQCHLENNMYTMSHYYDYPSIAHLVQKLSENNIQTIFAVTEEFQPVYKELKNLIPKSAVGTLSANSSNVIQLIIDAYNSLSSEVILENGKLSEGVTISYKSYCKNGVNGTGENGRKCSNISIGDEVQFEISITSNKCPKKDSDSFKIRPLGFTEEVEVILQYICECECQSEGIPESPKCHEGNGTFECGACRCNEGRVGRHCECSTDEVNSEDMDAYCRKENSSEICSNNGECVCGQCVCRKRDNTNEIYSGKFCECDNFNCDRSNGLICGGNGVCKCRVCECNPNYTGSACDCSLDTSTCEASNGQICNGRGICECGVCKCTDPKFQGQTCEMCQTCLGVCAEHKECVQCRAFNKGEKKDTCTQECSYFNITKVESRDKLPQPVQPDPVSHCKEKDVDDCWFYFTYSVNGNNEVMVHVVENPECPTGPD
Sequence of αvβ6 (P06756 31-992 limits assumed): as the sequence (P06756 31-992 limits assumed) above
Sequence of αvβ6 (P18564 22-707 limits assumed): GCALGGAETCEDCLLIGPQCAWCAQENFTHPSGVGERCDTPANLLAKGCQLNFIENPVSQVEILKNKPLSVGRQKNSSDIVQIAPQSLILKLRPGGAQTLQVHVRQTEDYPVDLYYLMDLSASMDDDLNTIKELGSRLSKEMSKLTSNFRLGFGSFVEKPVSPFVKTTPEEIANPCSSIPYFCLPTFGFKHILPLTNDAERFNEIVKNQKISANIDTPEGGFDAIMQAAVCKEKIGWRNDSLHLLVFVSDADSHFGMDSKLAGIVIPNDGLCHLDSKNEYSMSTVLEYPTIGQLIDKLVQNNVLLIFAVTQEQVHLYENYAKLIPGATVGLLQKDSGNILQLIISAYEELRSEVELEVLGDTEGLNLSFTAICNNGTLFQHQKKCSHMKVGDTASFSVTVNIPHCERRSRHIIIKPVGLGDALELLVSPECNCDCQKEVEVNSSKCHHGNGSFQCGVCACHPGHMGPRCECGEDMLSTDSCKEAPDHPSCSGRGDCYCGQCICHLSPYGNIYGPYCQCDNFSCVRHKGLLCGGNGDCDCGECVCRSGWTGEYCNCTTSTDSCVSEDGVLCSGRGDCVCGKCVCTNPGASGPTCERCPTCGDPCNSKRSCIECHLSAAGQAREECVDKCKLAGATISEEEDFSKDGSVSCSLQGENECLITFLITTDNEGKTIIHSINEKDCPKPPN

SMILES	IC50 (αvβ6) [nM]	IC50 (αvβ1) [nM]
CC1(C)CCN(c2cccc([C@H](CO[C@@H]3CCCN(CCCc4ccc5c(n4)NCCC5)C3)CC(=O)O)c2)CC1 [Compound 573]	100 to 1000	100 to 1000
O=C(O)C[C@@H](NC(=O)[C@@H]1CCCN(CCCc2ccc3c(n2)NCCC3)C1)c1cc(F)cc(C2CC2)c1 [Compound 347]	< 100	< 100
Cc1cc(C)n(-c2cccc([C@@H](CO[C@@H]3CCCN(CCCc4ccc5c(n4)NCCC5)C3)CC(=O)O)c2)n1 [Compound 574]	< 100	< 100
O=C(O)C[C@@H](CO[C@@H]1CCCN(CCCc2ccc3c(n2)NCCC3)C1)c1cc(F)cc(C2CC2)c1 [Compound 519]	< 100	< 100
O=C(O)C[C@H](NC(=O)[C@@H]1CCCN(CCCc2ccc3c(n2)NCCC3)C1)c1cc(Cl)cc(Cl)c1 [Compound 220, (S)-3-(3,5-dichlorophenyl)-3-((R)-1-(3-(5,6,7,8-tetrahydro-1,8-naphthyridin-2-yl)propyl)piperidine-3-carboxamido)propanoic acid]	< 100	< 100
O=C(NC[C@H](C(=O)O)c1ccc(F)c(-c2ccccc2)c1F)[C@@H]1CCCN(CCCc2ccc3c(n2)NCCC3)C1 [Compound 622]	100 to 1000	100 to 1000
O=C(O)C[C@@H](NC(=O)[C@@H]1CCCN(CCCc2ccc3c(n2)NCCC3)C1)c1cccc(Oc2ccccc2)c1 [Compound 209-B, 3-(3-phenoxyphenyl)-3-((R)-1-(3-(5,6,7,8-tetrahydro-1,8-naphthyridin-2-yl)propyl)piperidine-3-carboxamido)propanoic acid]	100 to 1000	> 1000
O=C(CC[C@@H](C(=O)O)c1ccccc1)N[C@H]1CCN(C(=O)CCCc2ccc3c(n2)NCCC3)C1 [Compound 423]	> 1000	> 1000
C[C@H]1C[C@@H](C(=O)NC[C@H](C(=O)O)c2ccc3ccccc3c2)CN(CCCc2ccc3c(n2)NCCC3)C1 [Compound 633]	< 100	< 100
O=C(O)C[C@@H](CO[C@H]1CCCN(CCCc2ccc3c(n2)NCCC3)C1)c1ccccc1 [Compound 445]	100 to 1000	100 to 1000
O=C(CC[C@H](NC(=O)[C@@H]1CCCN1S(=O)(=O)c1ccccc1)C(=O)O)N[C@H]1CCN(CCCCc2ccc3c(n2)NCCC3)C1 [Compound 435]	100 to 1000	< 100
O=C(O)[C@H](c1ccccc1)[C@H](O)CO[C@@H]1CCCN(CCCc2ccc3c(n2)NCCC3)C1 [Compound 611]	> 1000	> 1000
O=C(NC[C@H](C(=O)O)c1cccc(Br)c1)[C@@H]1CCCN(CCCc2ccc3c(n2)NCCC3)C1 [Compound 303]	< 100	< 100
CC(C)(C)OC(=O)N[C@@H](CNC(=O)[C@@H]1CCCN(CCCc2ccc3c(n2)NCCC3)C1)C(=O)O [Compound 265, (S)-2-((tert-butoxycarbonyl)amino)-3-((R)-1-(3-(5,6,7,8-tetrahydro-1,8-naphthyridin-2-yl)propyl)piperidine-3-carboxamido)propanoic acid]	< 100	< 100
O=C(O)C[C@H](NC(=O)[C@H]1CCCN(CCCc2ccc3c(n2)NCCC3)C1)c1ccccc1 [Compound 523]	< 100	100 to 1000
C[C@H]1C[C@H](C(=O)NC[C@H](C(=O)O)c2cccc(-c3ccccc3)c2)CN(CCCc2ccc3c(n2)NCCC3)C1 [Compound 638]	< 100	< 100
O=C(NC[C@@H](C(=O)O)c1cncc(-c2ccccc2)c1)[C@@H]1CCCN(CCCc2ccc3c(n2)NCCC3)C1 [Compound 627]	< 100	< 100

More lines, now with the values ahead:

IC50 (αvβ6) [nM]	IC50 (αvβ1) [nM]	SMILES
< 100	100 to 1000	O=C(O)C[C@@H](NC(=O)[C@@H]1CCCN(CCCc2ccc3c(n2)NCCC3)C1)c1cccc2c1CCCC2 [Compound 212-B, 3-((R)-1-(3-(5,6,7,8-tetrahydro-1,8-naphthyridin-2-yl)propyl)piperidine-3-carboxamido)-3-(5,6,7,8-tetrahydronaphthalen-1-yl)propanoic acid]
< 100	< 100	O=C(O)C(CNC(=O)[C@@H]1CCCN(CCCc2ccc3c(n2)NCCC3)C1)c1cccc(Br)c1 (stereo partly drawn) [Compound 255, 2-(3-bromophenyl)-3-((R)-1-(3-(5,6,7,8-tetrahydro-1,8-naphthyridin-2-yl)propyl)piperidine-3-carboxamido)propanoic acid hydrochloride]
< 100	< 100	O=C(CC[C@H](NC(=O)C12CCC(CC1)CC2)C(=O)O)N[C@@H]1CCN(CCCCc2ccc3c(n2)NCCC3)C1 [Compound 426]
> 1000	> 1000	O=C(O)[C@@H](CO[C@@H]1CCCN(CCCCc2ccc3c(n2)NCCC3)C1)NC(=O)C12CCC(CC1)CC2 [Compound 401]
< 100	< 100	O=C(O)C[C@H](NC(=O)[C@@H]1CCCN(CCCc2ccc3c(n2)NCCC3)C1)c1ccc2c(c1)OCC2 [Compound 613]
> 1000	< 100	O=C(O)[C@@H](CCO[C@@H]1CCCN(CCCc2ccc3c(n2)NCCC3)C1)NC(=O)[C@@H]1CCCN1S(=O)(=O)c1ccccc1 [Compound 495]
< 100	< 100	O=C(O)C[C@H](NC(=O)[C@@H]1CCCN(CCCc2ccc3c(n2)NCCC3)C1)c1cccc([C@H]2CCOC2)c1 [Compound 534]
< 100	< 100	O=C(O)C[C@H](NC(=O)[C@@H]1CCCN(CCCc2ccc3c(n2)NCCC3)C1)c1cccc(C2CCCC2)c1 [Compound 231, (S)-3-(3-cyclopentylphenyl)-3-((R)-1-(3-(5,6,7,8-tetrahydro-1,8-naphthyridin-2-yl)propyl)piperidine-3-carboxamido)propanoic acid hydrochloride]
< 100	< 100	O=C(O)[C@@H](CCO[C@@H]1CCCN(CCCc2ccc3c(n2)NCCC3)C1)Nc1ncnc2sccc12 [Compound 498]
< 100	< 100	O=C(O)C[C@H](NC(=O)[C@@H]1CCCN(CCCc2ccc3c(n2)NCCC3)C1)c1cccc2c1CCC2 [Compound 211-A, 3-(2,3-dihydro-1H-inden-4-yl)-3-((R)-1-(3-(5,6,7,8-tetrahydro-1,8-naphthyridin-2-yl)propyl)piperidine-3-carboxamido)propanoic acid]
< 100	< 100	O=C(N[C@@H](CNC(=O)[C@@H]1CCCN(CCCc2ccc3c(n2)NCCC3)C1)C(=O)O)c1cc(Cl)cc(Cl)c1 [Compound 363]
> 1000	100 to 1000	O=C(NC[C@@H](C(=O)O)c1cccc2nn(CC3CC3)cc12)[C@@H]1CCCN(CCCc2ccc3c(n2)NCCC3)C1 [Compound 316]
< 100	< 100	O=C(NC[C@@H](C(=O)O)c1cc(F)cc(-c2ccccc2)c1)[C@@H]1CCCN(CCCc2ccc3c(n2)NCCC3)C1 [Compound 307]
100 to 1000	< 100	CNC(=O)[C@@H]1CN(C(=O)CCCc2ccc3c(c2)NCCC3)C[C@H]1NC(=O)CC(CC(=O)O)c1ccccc1 (stereo partly shown) [Compound 606]
100 to 1000	> 1000	O=C(N[C@H](CCO[C@@H]1CCCN(CCCc2ccc3c(n2)NCCC3)C1)C(=O)O)c1cc(Cl)cc(Cl)c1 [Compound 496]
